{"source": "paper PMC7247319", "about": "“The mitochondria-targeted peptide SS-31 binds lipid bilayers and modulates surface electrostatics as a key component of its mechanism of action” (The Journal of Biological Chemistry, 2020)", "key": {"[1]": {"tested_on": "isolated mitochondria", "experiment": "TMRM time course of ΔΨm generation in mitochondria with ETH-129 and calcium", "set-up": "species or system S. cerevisiae", "protocol": "Figure 7. SS peptide effects on Ca^2+-membrane interactions and mitochondrial cation stress. A, profiles of surface potential decay (top) and ion distribution (bottom) based on GCS theory in the presence or absence of SS-31 (see supporting Results H for model description). B, effect of SS peptides on Ca^2+ accumulation at model membrane interfaces. Time course measurements of CG-5N emission were performed in solutions with LUVs (20 mol % TOCL in host POPC background, [lipid]^eff = 100 μM) prebound with SS peptide at the indicated concentration followed by titration of CaCl2 in increments of 1 nmol at 20-s intervals starting at t = 60 s. […] Spectral deconvolution yielded the indicated components (see Fig. S19, A and B), which were used to quantify the area ratios of L2/iso in F (values shown are means ± S.D. (error bars) (n = 3). G, respirometry analysis. Mitochondria (1 mg ml^−1) were treated in the absence or presence of SS-31 (54.4 μM) or CaCl2 (1 mM) as indicated and measured for state 2 respiration (n = 10–12 each).\nSecond, we measured the effects of SS peptides on mitochondrial Ca^2+ flux. […] In these experiments, we monitored the relative ΔΨm using the potentiometric probe tetramethylrhodamine methyl ester (TMRM) (the emission of which is inversely related to membrane potential; Fig. S17E) and, in parallel, monitored the external [Ca^2+] using CG-5N (Fig. 7C and Fig. S18A). […]"}, "[2]": {"tested_on": "isolated mitochondria", "experiment": "Respirometry (oxygen consumption) of mitochondria under calcium stress", "set-up": "species or system S. cerevisiae", "conditions": "mitochondria 1 mg ml^−1, SS-31 54.4 μM, CaCl2 1 mM, preincubated on ice 20 min; n = 10–12", "protocol": "Figure 7. SS peptide effects on Ca^2+-membrane interactions and mitochondrial cation stress. A, profiles of surface potential decay (top) and ion distribution (bottom) based on GCS theory in the presence or absence of SS-31 (see supporting Results H for model description). B, effect of SS peptides on Ca^2+ accumulation at model membrane interfaces. Time course measurements of CG-5N emission were performed in solutions with LUVs (20 mol % TOCL in host POPC background, [lipid]^eff = 100 μM) prebound with SS peptide at the indicated concentration followed by titration of CaCl2 in increments of 1 nmol at 20-s intervals starting at t = 60 s. C and D, effect of SS peptides on mitochondrial Ca^2+ uptake. […] Spectral deconvolution yielded the indicated components (see Fig. S19, A and B), which were used to quantify the area ratios of L2/iso in F (values shown are means ± S.D. (error bars) (n = 3). G, respirometry analysis. Mitochondria (1 mg ml^−1) were treated in the absence or presence of SS-31 (54.4 μM) or CaCl2 (1 mM) as indicated and measured for state 2 respiration (n = 10–12 each).\nFinally, we measured the effects of SS peptides on mitochondrial calcium stress that may occur independently of Ca^2+ uptake into the matrix. […] To corroborate these findings, we measured mitochondrial oxygen consumption rates under similar conditions of SS peptide treatment and calcium stress. […]"}}, "note": "Where a SMILES comes first, the peptide text is derived from it. [ ]: non-standard residue; d: D form. Dmt = Cc1cc(O)cc(C)c1C[C@H](N)C(=O)O", "data": [{"smiles": "Cc1cc(O)cc(C)c1C[C@H](NC(=O)[C@H](N)CCCNC(=N)N)C(=O)N[C@@H](CCCCN)C(=O)N[C@@H](Cc1ccccc1)C(N)=O", "note": "[SS-31, D-Arg-2′6′-dimethyl-Tyr-Lys-Phe-NH2] (H-[dR][Dmt]KF-NH2)", "values": [{"measurement": "dose response of effect on Ca2+-dependent ΔΨm generation delay", "setting": "[1]; 25 μM CaCl2, 1 mM NADH, n = 3", "result": "dose-dependent and saturable"}, {"measurement": "effect on temporal delay in mitochondrial energization (ΔΨm generation) with Ca2+", "setting": "[1]; ETH-129, NADH, increasing [Ca2+], TMRM", "result": "reduced the extent of this temporal delay"}, {"measurement": "effect on calcium-induced increase in basal (state 2) respiration", "setting": "[2]", "result": "prevented"}]}]}
